Experimental data published in patent US4916217A, “Phosphorus containing derivatives of epipodophyllotoxin” (priority 1987, dated 1990).
In brackets after ≈: the same amount, converted by molar mass. Several values for one entry are separate records, joined by “and”; a condition that tells them apart may be missing. Identical values can stand only once.

Experiments:
B16-F10 murine melanoma = experiment: in vitro cytotoxicity assay, B16-F10; assay type: cell-based; conditions: 50% inhibition of cell growth, etoposide values (in parentheses) from the same run
Procedure: (§1) The test data involves a cytotoxicity assay versus various murine and human tumors, and in vivo evaluation against P-388 leukemia and B16 melanoma in mice.
(§2) The in vitro cytotoxicity assay involved growing various mammalian tumor cells, including human tumor cells, on microtitre plates employing established tissue culture methods. The concentration of each compound required to inhibit cell growth by 50% (IC50) was then determined by a four-fold serial dilution technique. The validity of the method has been supported by a report published in the "Proceedings of the American Association for Cancer Research", Vol. 25, 328, p. 1891 (1984). Tumor cells of the following types were employed for each compound tested: B16-F10 murine melanoma; Moser human colon; M109 murine lung; and three human colon tumor cell lines namely HCT-116, HCT-VM, and HCT-VP, the latter two being resistant to teniposide (VM) and etoposide (VP). A wide range of IC50 values was observed, and quantitative comparisons amongst test compounds or against the etoposide control values were not possible.

[1] = system: HCT-116 human colon tumor cell line; experiment: in vitro cytotoxicity assay, HCT-116; assay type: cell-based; conditions: 50% inhibition of cell growth; etoposide values (in parentheses) from the same run
Procedure: as §1, §2

[2] = system: HCT-VM human colon tumor cell line; experiment: in vitro cytotoxicity assay, HCT/VM (teniposide resistant); assay type: cell-based; conditions: 50% inhibition of cell growth; etoposide values (in parentheses) from the same run
Procedure: as §1, §2

[3] = system: HCT-VP human colon tumor cell line; experiment: in vitro cytotoxicity assay, HCT/VP (etoposide resistant); assay type: cell-based; conditions: 50% inhibition of cell growth; etoposide values (in parentheses) from the same run
Procedure: as §1, §2

Moser human colon = experiment: in vitro cytotoxicity assay, Moser; assay type: cell-based; conditions: 50% inhibition of cell growth; etoposide values (in parentheses) from the same run
Procedure: as §1, §2

P-388 murine leukemia = experiment: P-388 murine leukemia, in vivo antitumor activity; design: species or system CDF1 female mice; Average Weight Change: unit: g; conditions: for Average Weight Change / Maximum Effect % T/C: P-388, i.p.; for effectiveness relative to etoposide (% T/C): P-388, days 5 and 8 protocol
Procedure: The test protocol involved CDF1 female mice implanted intraperitoneally with a tumor inoculum of 10^6 ascites cells of P-388 murine leukemia and treated with various doses of a test compound, or with etoposide. The compounds were administered by intraperitoneal injection on various schedules. Groups of four mice were used for each dosage schedule and amount. A group of ten saline treated control mice was included in each series of experiments, and etoposide treated groups of six were included as a positive control. Thirty one, 47, and 49 day protocols were employed with the mean survival time in days being determined for each group of mice and the number of survivors at the end of the period being noted. The mice were weighed before treatment and again on day 5 or day 6. Mice weighing 20 grams each were employed and a loss in weight of up to approximately 2 grams was not considered excessive. The results are arranged in Table II and were determined in terms of % T/C which is the ratio of the mean survival time of the treated group to the mean survival time of the saline treated control group times 100. The saline treated control animals usually died within nine days. The "maximum effect" in the table is expressed as % T/C and the dose giving that effect is reported. Two different dosage regimens were employed. In one, the first dose of test drug was given on Day 1, the day of tumor inoculation, and second was given on Day 5. In the other, the first dose of test drug was given on Day 5 and a second dose on Day 8. According to the latter protocol, the etoposide control % T/C values are lower than according to the former protocol indicating a more stringent test regimen.

B16 melanoma = experiment: B16 melanoma, in vivo antitumor activity; design: species or system BDF1 female mice; conditions: for % T/C: B16 melanoma s.c.
[4] = system: variety of cancers including small cell lung cancer, non-lymphocytic leukemia, and nonseminomatous testicular cancer; conditions: AMA Drug Evaluations, 5th Edition, 1983; cited from earlier work
M109 murine lung = experiment: in vitro cytotoxicity assay, M109; assay type: cell-based; conditions: 50% inhibition of cell growth; etoposide values (in parentheses) from the same run
Procedure: as §1, §2

[5] = 40 mg/kg, treatment days 1 and 5
[6] = 60 mg/kg, treatment days 1 and 5
[7] = 60 mg/kg, treatment days 5 and 8
[8] = 120 mg/kg, treatment days 1 and 5
[9] = 160 mg/kg, treatment days 5 and 8
[10] = 200 mg/kg, treatment days 5 and 8

Compound	IC50 B16-F10 (B16-F10 murine melanoma)	IC50 HCT-116 [1]	IC50 HCT/VM [2]	IC50 HCT/VP [3]	IC50 Moser (Moser human colon)	activity in the treatment of cancers [4]	Average Weight Change (P-388 murine leukemia; [8])	Maximum Effect % T/C (P-388 murine leukemia; [8]) [% T/C]	IC50 M109 (M109 murine lung)	effectiveness relative to etoposide (% T/C) (P-388 murine leukemia)	other results
COc1cc([C@@H]2c3cc4c(cc3[C@@H](O[C@@H]3O[C@@H]5CO[C@@H](C)O[C@H]5[C@H](O)[C@H]3O)[C@H]3COC(=O)[C@H]23)OCO4)cc(OC)c1O [Etoposide, reference compound]	1.9 mg/L (≈ 3.23 µM)	2.1 mg/L and 2.7 mg/L	6.1 mg/L and 3.1 mg/L	30 mg/L and 41 mg/L	38 mg/L and 39 mg/L	active					IC50 B16-F10 (B16-F10 murine melanoma; listed as etoposide): 9 to 12 mg/L; Average Weight Change (P-388 murine leukemia; [5]): -1.9; Maximum Effect % T/C (P-388 murine leukemia; [5]): > 450 % T/C; Average Weight Change (P-388 murine leukemia; [6]): -0.4; Maximum Effect % T/C (P-388 murine leukemia; [6]): > 573 % T/C; Average Weight Change (P-388 murine leukemia; [7]): +2.1; Maximum Effect % T/C (P-388 murine leukemia; [7]): 280 % T/C; % T/C (B16 melanoma; i.p., 100 mg/kg): > 177
CCP1(CC)(CC)Oc2cc([C@@H]3c4cc5c(cc4[C@@H](O[C@@H]4O[C@@H]6CO[C@@H](C)O[C@H]6[C@H](O)[C@H]4O)[C@H]4COC(=O)[C@H]34)OCO5)cc(OC)c2O1 [Example 1, ETOPOSIDE-3',4'-DIOXATRIETHYLPHOSPHORANE]		47 mg/L and 46 mg/L	56 mg/L and 45 mg/L	108 mg/L and 89 mg/L	64 mg/L and 85 mg/L		-0.7	> 544			activity against B16 melanoma (prolongation of survival) (B16 melanoma; B16 melanoma implanted subcutaneously, i.p. dosage): active; % T/C (B16 melanoma; i.p. dosage, 40 mg/kg): 145%
COc1cc([C@@H]2c3cc4c(cc3[C@@H](O[C@@H]3O[C@@H]5CO[C@@H](C)O[C@H]5[C@H](O)[C@H]3O)[C@H]3COC(=O)[C@H]23)OCO4)cc2c1OP(C)(CO)(CO)O2 [Example 2]	21 mg/L and 30 mg/L	9.8 mg/L and 10.6 mg/L		74 mg/L and 80 mg/L	74 mg/L and 70 mg/L				76 mg/L and 71 mg/L	Greater effectiveness	Average Weight Change (P-388 murine leukemia; [9]): +2.6; Maximum Effect % T/C (P-388 murine leukemia; [9]): 305 % T/C
COc1cc([C@@H]2c3cc4c(cc3[C@@H](O[C@@H]3O[C@@H]5CO[C@@H](C)O[C@H]5[C@H](O)[C@H]3O)[C@H]3COC(=O)[C@H]23)OCO4)cc2c1OP(CCC#N)(CCC#N)(CCC#N)O2 [Example 3, Etoposide-3',4'-Dioxa-Tris-(2-Cyanoethyl)Phosphorane]	20 mg/L and 22 mg/L	15.6 mg/L and 14.3 mg/L	35 mg/L and 56 mg/L	64 mg/L and 99 mg/L	105 mg/L and 79 mg/L				54 mg/L and 56 mg/L	Greater effectiveness	Average Weight Change (P-388 murine leukemia; [10]): +3.2; Maximum Effect % T/C (P-388 murine leukemia; [10]): 285 % T/C
COc1cc([C@@H]2c3cc4c(cc3[C@@H](O[C@@H]3O[C@@H]5CO[C@@H](c6cccs6)O[C@H]5[C@H](O)[C@H]3O)[C@H]3COC(=O)[C@H]23)OCO4)cc(OC)c1O [Teniposide]						active					
Etoposide-Bis-(2-Chloroethyl)Phosphate, Mixture of 3' and 4'Regioisomers [Example 4]	13.1 mg/L and 20.7 mg/L		63 mg/L and 82 mg/L	203 mg/L and 168 mg/L	84 mg/L		+0.2	150	> 125 mg/L and 97 mg/L		
